# Article PMC10478824, “Development of FAPI Tetramers to Improve Tumor Uptake and Efficacy of FAPI Radioligand Therapy” (Journal of Nuclear Medicine, 2023)
# Legend:
# HT-1080-FAP tumors [1] = assay: Ex vivo biodistribution of ^177Lu-labeled FAPIs in HT-1080-FAP tumor-bearing mice; details: for tumor uptake: HT-1080-FAP tumors
# Procedure: (§1) All animal experimental procedures were approved by the Animal Care and Ethics Committee of Xiamen University and performed in accordance with the Guidelines for the Care and Use of Animals of the Xiamen University Laboratory Animal Center. For in vivo experiments, 6-wk-old BALB/c nude mice (Beijing Vital River Laboratory Animal Technology Co., Ltd.) were subcutaneously inoculated with HT-1080-FAP or U87 cells (5 × 10^6 in 100 μL of phosphate-buffered saline) in the right shoulder.
# Three groups of HT-1080-FAP mice were injected with 0.74 MBq of ^177Lu-FAPI-46, ^177Lu-DOTA-2P(FAPI)2, or ^177Lu-DOTA-4P(FAPI)4 and were euthanized at different time points (24–48 h for monomers and 24–96 h for dimers and tetramers, 3/group). Blood, tumor, muscle, and major organs were weighed and measured using a γ-counter (WIZARD^2 2480). Data were normalized to the percentage injected dose per gram (%ID/g) using 1% of total counts.
# HT-1080-FAP tumors [2] = assay: FAP-targeted radioligand therapy in HT-1080-FAP tumor-bearing mice; format: in vivo
# Procedure: as §1
# (§2) When the tumor volume reached approximately 100 mm^3, the mice were randomized into 4 groups for radioligand therapy with ^177Lu-labeled monomeric, dimeric, and tetrameric FAPIs (6/group): group A, saline; group B, 29.6 MBq of ^177Lu-FAPI-46; group C, 29.6 MBq of ^177Lu-DOTA-2P(FAPI)2; and group D, 29.6 MBq of ^177Lu-DOTA-4P(FAPI)4. […] HT-1080-FAP, a FAP-transfected tumor xenograft with much higher levels of FAP expression than U87MG, was also used in this study. Therefore, the frequency of administration was higher in U87MG tumor–bearing mice (every 72 h, 3 doses in total) than in the HT-1080-FAP models (a single dose). Weight and tumor volume were monitored every 2 d, and the mice were euthanized when the average tumor volume exceeded 1,500 mm^3, when the tumor was ulcerated, or when weight loss was more than 20%. To further assess radioligand therapy–related toxicity effects, the main organs were collected from the ^177Lu-DOTA-4P(FAPI)4 group on day 22 after hematoxylin and eosin staining ([16]).
# U87MG tumors [3] = assay: FAP-targeted radioligand therapy in U87MG tumor-bearing mice; format: in vivo; details: 29.6 MBq every 72 h, 3 doses
# Procedure: as §1
# as §2, with “To further assess radioligand therapy–related toxicity effects, the main organs were collected from the ^177Lu-DOTA-4P(FAPI)4 group on day 22 after hematoxylin and eosin staining ([16]).” left out
# [4] = In vitro stability in phosphate-buffered saline and fetal bovine serum (radio-HPLC); format: in vitro ADME
# HT-1080-FAP tumors [5] = assay: Small-animal PET in HT-1080-FAP tumor-bearing mice; format: in vivo
# Procedure: as §1
# (§3) Dynamic PET, static PET (with or without competition), and SPECT scans with radiolabeled monomeric, dimeric, and tetrameric FAPIs were performed on HT-1080-FAP tumor–bearing mice for pharmacokinetic evaluation. Additionally, static PET with ^68Ga-labeled monomeric, dimeric, and tetrameric FAPIs was performed and compared in U87MG tumor–bearing mice.
# (§4) Approximately 7.4 MBq of ^68Ga-DOTA-4P(FAPI)4 was intravenously injected into HT-1080-FAP tumor–bearing mice (n = 3) for the 60-min dynamic PET. For multiple-time-point static PET (0.5, 1, 2, and 4 h after injection), 7.4 MBq of ^68Ga-FAPI-46, ^68Ga-DOTA-2P(FAPI)2, or ^68Ga-DOTA-4P(FAPI)4 were injected into HT-1080-FAP and U87MG tumor–bearing mice (3/group). For longer-term observation, HT-1080-FAP tumor–bearing mice were intravenously injected with 7.4 MBq of ^64Cu-NOTA-2P(FAPI)2 or ^64Cu-NOTA-4P(FAPI)4 (3/group). For the in vivo blocking experiment, PET imaging was performed 1 h after the simultaneous administration of 30 nmol of unlabeled FAPI-46 and 7.4 MBq of ^68Ga-DOTA-4P(FAPI)4.
# U87MG tumors [6] = assay: Small-animal static PET in U87MG tumor-bearing mice; format: in vivo
# Procedure: as §1, §3
# as §4, with “For the in vivo blocking experiment, PET imaging was performed 1 h after the simultaneous administration of 30 nmol of unlabeled FAPI-46 and 7.4 MBq of ^68Ga-DOTA-4P(FAPI)4.” left out
# HT-1080-FAP cells = assay: Cell uptake and blocking experiment; format: cell-based, human; details: 120 min
# Procedure: A human fibrosarcoma cell line was stably transfected with FAP (HT-1080-FAP) and cultured, as previously described ([15]). A human glioblastoma cell line (U87MG, from the Chinese National Infrastructure of Cell Line Resource) was cultured in Dulbecco modified Eagle medium (Thermo Fischer Scientific) supplemented with 10% fetal bovine serum (Thermo Fisher Scientific). HT-1080-FAP cells were seeded in 24-well plates using RPMI 1640 medium with 10% fetal bovine serum, and the medium was replaced with fresh medium without fetal bovine serum when the cells reached 80%–90% density. ^68Ga-FAPI-46, ^68Ga-DOTA-2P(FAPI)2, ^68Ga-DOTA-4P(FAPI)4, or ^68Ga-DOTA-4P(FAPI)4 with 11.3 nmol of unlabeled FAPI-46 (for the blocking experiment) were added to the 24-well plates and incubated for 60, 90, and 120 min. For the competitive cell-binding assay, a gradient concentration (5.6 × 10^−13 to 10^−5 M) of FAPI-46, DOTA-2P(FAPI)2, or DOTA-4P(FAPI)4 was added to the cells and incubated with ^68Ga-FAPI-46 for 60 min. Similarly, a gradient concentration (5.4 × 10^−13 to 10^−5 M) of NOTA-2P(FAPI)2 or NOTA-4P(FAPI)4 was added to the cells and incubated with ^68Ga-FAPI-46 for 60 min. After each step, the cells were washed twice with phosphate-buffered saline (1 mL) and lysed with 1 M NaOH (0.5 mL). The radioactivity (counts per minute) was determined with a γ-counter (WIZARD^2 2480; PerkinElmer Inc.). All experiments were independently repeated 3 times. The 50% inhibitory concentrations were determined by fitting a nonlinear regression model to the data using Prism software, version 8 (GraphPad Software Inc.).
# [7] = HT-1080-FAP tumor-bearing mice, 48 h after injection
smiles,measurement,setting,value
CN(CCCN1CCN(C(=O)COCCOCCOCCNC(=O)CCC(=O)NCCCC[C@H](NC(=O)CCC(=O)NCCOCCOCCOCC(=O)N2CCN(CCCN(C)c3ccc4nccc(C(=O)NCC(=O)N5CC(F)(F)C[C@H]5C#N)c4c3)CC2)C(=O)NCCCC[C@H](NC(=O)[C@H](CCCCNC(=O)CN2CCN(CC(=O)[O-])CCN(CC(=O)[O-])CCN(CC(=O)[O-])CC2)NC(=O)CCC(=O)NCCOCCOCCOCC(=O)N2CCN(CCCN(C)c3ccc4nccc(C(=O)NCC(=O)N5CC(F)(F)C[C@H]5C#N)c4c3)CC2)C(=O)NCCOCCOCCOCC(=O)N2CCN(CCCN(C)c3ccc4nccc(C(=O)NCC(=O)N5CC(F)(F)C[C@H]5C#N)c4c3)CC2)CC1)c1ccc2nccc(C(=O)NCC(=O)N3CC(F)(F)C[C@H]3C#N)c2c1.[177Lu+3] [^177Lu-DOTA-4P(FAPI)4],kidney uptake,HT-1080-FAP tumors [1]; [7],6.6 ± 0.2 %ID/g
same,liver uptake,HT-1080-FAP tumors [1]; [7],6.3 ± 0.5 %ID/g
same,spleen uptake,HT-1080-FAP tumors [1]; [7],5.1 ± 0.7 %ID/g
same,tumor uptake,HT-1080-FAP tumors [1]; 24 h after injection,21.4 ± 1.7 %ID/g
same,tumor uptake,HT-1080-FAP tumors [1]; 48 h after injection,19.2 ± 0.6 %ID/g
same,tumor uptake,HT-1080-FAP tumors [1]; 72 h after injection,18.8 ± 2.1 %ID/g
same,tumor uptake,HT-1080-FAP tumors [1]; 96 h after injection,14.8 ± 0.9 %ID/g
same,systemic toxicity by monitoring body weight,"HT-1080-FAP tumors [2]; HT-1080-FAP tumor-bearing mice, 29.6 MBq",No systemic toxicity
same,tumor growth after radioligand therapy,"HT-1080-FAP tumors [2]; HT-1080-FAP, single dose 29.6 MBq",significant inhibition of tumor growth
same,hematoxylin and eosin staining of selected nontarget organs,"HT-1080-FAP tumors [2]; organs collected on day 22, versus control",no differences between the control and radioligand therapy groups
same,median survival,U87MG tumors [3],not reached
same,tumor volume,U87MG tumors [3]; day 14 after treatment,140.28 ± 76.36 mm^3
same,in vitro stability (demetallation / free radioactivity),[4]; 24 h incubation in phosphate-buffered saline and fetal bovine serum,highly stable
same,in vitro stability (demetallation / free radioactivity),"[4]; 24 h incubation in phosphate-buffered saline and fetal bovine serum, listed as 177Lu-DOTA-4P[FAPI]4",neither significant demetallation nor free radioactivity was observed
CN(CCCN1CCN(C(=O)COCCOCCOCCNC(=O)CCC(=O)NCCCC[C@H](NC(=O)CCC(=O)NCCOCCOCCOCC(=O)N2CCN(CCCN(C)c3ccc4nccc(C(=O)NCC(=O)N5CC(F)(F)C[C@H]5C#N)c4c3)CC2)C(=O)NCCCC[C@H](NC(=O)[C@H](CCCCNC(=O)CN2CCN(CC(=O)[O-])CCN(CC(=O)[O-])CCN(CC(=O)[O-])CC2)NC(=O)CCC(=O)NCCOCCOCCOCC(=O)N2CCN(CCCN(C)c3ccc4nccc(C(=O)NCC(=O)N5CC(F)(F)C[C@H]5C#N)c4c3)CC2)C(=O)NCCOCCOCCOCC(=O)N2CCN(CCCN(C)c3ccc4nccc(C(=O)NCC(=O)N5CC(F)(F)C[C@H]5C#N)c4c3)CC2)CC1)c1ccc2nccc(C(=O)NCC(=O)N3CC(F)(F)C[C@H]3C#N)c2c1.[68Ga+3] [^68Ga-DOTA-4P(FAPI)4],elimination route,"HT-1080-FAP tumors [5]; HT-1080-FAP tumor-bearing mice, PET",eliminated predominantly through the kidneys and bladder
same,reduction in tumor uptake by blocking,"HT-1080-FAP tumors [5]; HT-1080-FAP tumors, 1 h after injection, unlabeled FAPI-46",92%
same,tumor uptake SUVmean without blocking,"HT-1080-FAP tumors [5]; HT-1080-FAP tumors, PET, 1 h after injection",1.87 ± 0.08
same,tumor uptake SUVmean with blocking,"HT-1080-FAP tumors [5]; HT-1080-FAP tumors, PET, 1 h after injection, coinjection of 30 nmol unlabeled FAPI-46",0.16 ± 0.03
same,tumor uptake SUVmean,"HT-1080-FAP tumors [5]; HT-1080-FAP tumors, PET, 4 h after injection",1.99 ± 0.09
same,course of tumor uptake over time,"HT-1080-FAP tumors [5]; HT-1080-FAP tumors, static PET up to 4 h after injection",tumor uptake remained constant up to 4 h after injection
same,washout from tumor,U87MG tumors [6]; PET 0.5-4 h after injection,minimal
same,tumor uptake SUVmean,"U87MG tumors [6]; PET, 1 h after injection",0.72 ± 0.02
same,cell uptake,HT-1080-FAP cells,57.98% ± 0.27%
same,reduction of cell uptake by blocking,HT-1080-FAP cells; unlabeled FAPI-46,97%
same,cell uptake with blocking,HT-1080-FAP cells; with 11.3 nmol unlabeled FAPI-46,1.79% ± 0.97%
same,in vitro stability (demetallation / free radioactivity),[4]; 4 h incubation in phosphate-buffered saline and fetal bovine serum,highly stable
same,in vitro stability (demetallation / free radioactivity),"[4]; 4 h incubation in phosphate-buffered saline and fetal bovine serum, listed as 68Ga-DOTA-4P[FAPI]4",neither significant demetallation nor free radioactivity was observed
